Data as given in patent US8192962B2, “Processes for detecting toxic substances” (Daikin Industries, Ltd., priority 2001, dated 2012).

Tested on: Stress protein genes
Experiment: DNA chip mRNA expression in yeast, stress protein genes (Table 6)
Type: cell-based, Saccharomyces cerevisiae S288C
Description: Yeast (Saccharomyces cerevisiae S288C (α SUC2mal mel gap2 CUP1)) were incubated at 25° C. on YPD medium (yeast extract 1%, polypepton 2%, glucose 2%). One of toxic chemical substances was added to the cells at logarithmic growth phase, and the cells were further incubated for two hours. Cells were cultured without any chemical substance in the same condition, and were used as control. Concentrations of the chemical substances were defined to inhibit the growth of the yeast but not lead to death.
After completion of the incubation, the culture was centrifuged to collect the cells. To the cells, sodium acetate buffer (50 mM sodium acetate, 10 mM EDTA, 1% SDS) was added, and the mixture was shaken at 65° C. for five minutes, followed by returning to room temperature, and obtaining the supernatant, of which the procedures were repeated two times. To the supernatant, ½ amount of a solution of phenol/chloroform was added, and the mixture was centrifuged to give a supernatant, which was added with an equal amount of chloroform, and the mixture was centrifuged to give a supernatant. To the supernatant, an equal amount of isopropanol containing 0.3 M sodium acetate was added, and the mixture was allowed to stand at room temperature for 30 minutes, after which the mixture was centrifuged to give a sediment of the whole RNAs. Seventy % ethanol was added to the sediment, and the mixture was again centrifuged to give a sediment, which was then dried and dissolved in water. mRNA was isolated from the whole RNAs as followings. In view of the fact that a poly A chain is attached to the 3′ terminus of mRNA, a polynucleotide having a poly T structure which was immobilized on the surface of latex beads was used to trap the mRNA, and then the mRNA was washed and eluted with spine column (Oligotex-dT30<Super>mRNA Purification Kit, Takara). Reverse transcription of the mRNA was conducted with a reverse transcriptase (Super Script II Reverse Transcriptase; catalogue No. 18064-014, GibcoBRL) using fluorescence-labeled nucleotides to give cDNAs that were introduced with Cy3-dUTP or Cy5-dUTP during the reverse transcription.
The labeled cDNAs were dissolved in TE buffer (10mM Tris-HCl/1 mM EDTA, pH8.0), and the solution was dropped on the DNA chip containing the whole genes of yeast (DNA Chip Research Inc. Japan) so that the cDNAs were hybridized on the DNA chip at 65° C. for over 12 hours. The fluoresces intensity of the DNA chip was read with a scanner, and the ratio relative to the fluorescence intensity resulting from the absence of chemical substance was estimated as the following, which is shown in Tables 1 to 9: […]

With [Cl][Cd][Cl] [(2), CdCl2] the “The level of expressed mRNA in the presence of chemical substance/The level of expressed mRNA in the absence of chemical substance” value (yeast gene YAL005C) was 1.6, the “The level of expressed mRNA in the presence of chemical substance/The level of expressed mRNA in the absence of chemical substance” value (yeast gene YAL015C) was 1.1 and the “The level of expressed mRNA in the presence of chemical substance/The level of expressed mRNA in the absence of chemical substance” value (yeast gene YBL075C) was 4.3. For the same molecule, the “The level of expressed mRNA in the presence of chemical substance/The level of expressed mRNA in the absence of chemical substance” value (yeast gene YBL093C) was 2.0, the “The level of expressed mRNA in the presence of chemical substance/The level of expressed mRNA in the absence of chemical substance” value (yeast gene YBR044C) was 1.4 and the “The level of expressed mRNA in the presence of chemical substance/The level of expressed mRNA in the absence of chemical substance” value (yeast gene YBR054W) was 1.8. The “The level of expressed mRNA in the presence of chemical substance/The level of expressed mRNA in the absence of chemical substance” value (yeast gene YBR067C) was 2.5, the “The level of expressed mRNA in the presence of chemical substance/The level of expressed mRNA in the absence of chemical substance” value (yeast gene YBR072W) was 17.4 and the “The level of expressed mRNA in the presence of chemical substance/The level of expressed mRNA in the absence of chemical substance” value (yeast gene YBR126C) was 1.9. The “The level of expressed mRNA in the presence of chemical substance/The level of expressed mRNA in the absence of chemical substance” value (yeast gene YBR169C) was 2.1, the “The level of expressed mRNA in the presence of chemical substance/The level of expressed mRNA in the absence of chemical substance” value (yeast gene YCL035C) was 2.3 and the “The level of expressed mRNA in the presence of chemical substance/The level of expressed mRNA in the absence of chemical substance” value (yeast gene YCR021C) was 1.4. The “The level of expressed mRNA in the presence of chemical substance/The level of expressed mRNA in the absence of chemical substance” value (yeast gene YCR060W) was 0.7, the “The level of expressed mRNA in the presence of chemical substance/The level of expressed mRNA in the absence of chemical substance” value (yeast gene YCR083W) was 2.8 and the “The level of expressed mRNA in the presence of chemical substance/The level of expressed mRNA in the absence of chemical substance” value (yeast gene YDL022W) was 2.6. The “The level of expressed mRNA in the presence of chemical substance/The level of expressed mRNA in the absence of chemical substance” value (yeast gene YDL025C) was 5.0, the “The level of expressed mRNA in the presence of chemical substance/The level of expressed mRNA in the absence of chemical substance” value (yeast gene YDR033W) was 1.3 and the “The level of expressed mRNA in the presence of chemical substance/The level of expressed mRNA in the absence of chemical substance” value (yeast gene YDR077W) was 1.0. The “The level of expressed mRNA in the presence of chemical substance/The level of expressed mRNA in the absence of chemical substance” value (yeast gene YDR098C) was 1.4, the “The level of expressed mRNA in the presence of chemical substance/The level of expressed mRNA in the absence of chemical substance” value (yeast gene YDR155C) was 1.5 and the “The level of expressed mRNA in the presence of chemical substance/The level of expressed mRNA in the absence of chemical substance” value (yeast gene YDR258C) was 2.3. For the same molecule, the “The level of expressed mRNA in the presence of chemical substance/The level of expressed mRNA in the absence of chemical substance” value (yeast gene YDR293C) was 0.9, the “The level of expressed mRNA in the presence of chemical substance/The level of expressed mRNA in the absence of chemical substance” value (yeast gene YDR436W) was 0.9 and the “The level of expressed mRNA in the presence of chemical substance/The level of expressed mRNA in the absence of chemical substance” value (yeast gene YDR513W) was 2.5. For the same molecule, the “The level of expressed mRNA in the presence of chemical substance/The level of expressed mRNA in the absence of chemical substance” value (yeast gene YDR519W) was 3.2, the “The level of expressed mRNA in the presence of chemical substance/The level of expressed mRNA in the absence of chemical substance” value (yeast gene YEL030W) was 0.9 and the “The level of expressed mRNA in the presence of chemical substance/The level of expressed mRNA in the absence of chemical substance” value (yeast gene YEL039C) was 0.7. The “The level of expressed mRNA in the presence of chemical substance/The level of expressed mRNA in the absence of chemical substance” value (yeast gene YER042W) was 2.2, the “The level of expressed mRNA in the presence of chemical substance/The level of expressed mRNA in the absence of chemical substance” value (yeast gene YER057C) was 2.0 and the “The level of expressed mRNA in the presence of chemical substance/The level of expressed mRNA in the absence of chemical substance” value (yeast gene YER103W) was 2.1. For the same molecule, the “The level of expressed mRNA in the presence of chemical substance/The level of expressed mRNA in the absence of chemical substance” value (yeast gene YER125W) was 1.1, the “The level of expressed mRNA in the presence of chemical substance/The level of expressed mRNA in the absence of chemical substance” value (yeast gene YFL014W) was 5.1 and the “The level of expressed mRNA in the presence of chemical substance/The level of expressed mRNA in the absence of chemical substance” value (yeast gene YFL016C) was 1.0. For the same molecule, the “The level of expressed mRNA in the presence of chemical substance/The level of expressed mRNA in the absence of chemical substance” value (yeast gene YFL020C) was 1.1, the “The level of expressed mRNA in the presence of chemical substance/The level of expressed mRNA in the absence of chemical substance” value (yeast gene YFR052W) was 1.6 and the “The level of expressed mRNA in the presence of chemical substance/The level of expressed mRNA in the absence of chemical substance” value (yeast gene YGL073W) was 2.1. The “The level of expressed mRNA in the presence of chemical substance/The level of expressed mRNA in the absence of chemical substance” value (yeast gene YGL115W) was 0.6, the “The level of expressed mRNA in the presence of chemical substance/The level of expressed mRNA in the absence of chemical substance” value (yeast gene YGL181W) was 0.9 and the “The level of expressed mRNA in the presence of chemical substance/The level of expressed mRNA in the absence of chemical substance” value (yeast gene YGR088W) was 1.2. For the same molecule, the “The level of expressed mRNA in the presence of chemical substance/The level of expressed mRNA in the absence of chemical substance” value (yeast gene YHL028W) was 0.8, the “The level of expressed mRNA in the presence of chemical substance/The level of expressed mRNA in the absence of chemical substance” value (yeast gene YHL046C) was 1.7 and the “The level of expressed mRNA in the presence of chemical substance/The level of expressed mRNA in the absence of chemical substance” value (yeast gene YHR030C) was 0.8. For the same molecule, the “The level of expressed mRNA in the presence of chemical substance/The level of expressed mRNA in the absence of chemical substance” value (yeast gene YHR057C) was 1.2, the “The level of expressed mRNA in the presence of chemical substance/The level of expressed mRNA in the absence of chemical substance” value (yeast gene YHR104W) was 4.1 and the “The level of expressed mRNA in the presence of chemical substance/The level of expressed mRNA in the absence of chemical substance” value (yeast gene YIL011W) was 0.5.
